Results on 25 molecules are retold here after ChEMBL document CHEMBL5523734, “Backbone-Determined Antiarrhythmic Structure-Activity Relationships for a Mirror Image, Oligomeric Depsipeptide Natural Product” (J Med Chem, 2024).

Activity calls are given as the source filed them. The rule behind the calls is not given here. Numbered stars: 1 amine (or outer) side, 2 acyl side, 3 side chain; on linkers, the order of the positions; unused ones are H or OH. Square brackets hold non-standard residues; d marks the D form. Peptide text beside a SMILES is read from it. X1 = CCCCC[C@H](O[*:1])C(=O)[*:2]; NMeAhp(2) = CCCCC[C@H](NC)C(=O)O; Ahp(2) = CCCCC[C@H](N)C(=O)O; dNMeA = CN[C@H](C)C(=O)O

Sequence of Ryanodine receptor 2 (Mus musculus) (E9Q401 whole entry): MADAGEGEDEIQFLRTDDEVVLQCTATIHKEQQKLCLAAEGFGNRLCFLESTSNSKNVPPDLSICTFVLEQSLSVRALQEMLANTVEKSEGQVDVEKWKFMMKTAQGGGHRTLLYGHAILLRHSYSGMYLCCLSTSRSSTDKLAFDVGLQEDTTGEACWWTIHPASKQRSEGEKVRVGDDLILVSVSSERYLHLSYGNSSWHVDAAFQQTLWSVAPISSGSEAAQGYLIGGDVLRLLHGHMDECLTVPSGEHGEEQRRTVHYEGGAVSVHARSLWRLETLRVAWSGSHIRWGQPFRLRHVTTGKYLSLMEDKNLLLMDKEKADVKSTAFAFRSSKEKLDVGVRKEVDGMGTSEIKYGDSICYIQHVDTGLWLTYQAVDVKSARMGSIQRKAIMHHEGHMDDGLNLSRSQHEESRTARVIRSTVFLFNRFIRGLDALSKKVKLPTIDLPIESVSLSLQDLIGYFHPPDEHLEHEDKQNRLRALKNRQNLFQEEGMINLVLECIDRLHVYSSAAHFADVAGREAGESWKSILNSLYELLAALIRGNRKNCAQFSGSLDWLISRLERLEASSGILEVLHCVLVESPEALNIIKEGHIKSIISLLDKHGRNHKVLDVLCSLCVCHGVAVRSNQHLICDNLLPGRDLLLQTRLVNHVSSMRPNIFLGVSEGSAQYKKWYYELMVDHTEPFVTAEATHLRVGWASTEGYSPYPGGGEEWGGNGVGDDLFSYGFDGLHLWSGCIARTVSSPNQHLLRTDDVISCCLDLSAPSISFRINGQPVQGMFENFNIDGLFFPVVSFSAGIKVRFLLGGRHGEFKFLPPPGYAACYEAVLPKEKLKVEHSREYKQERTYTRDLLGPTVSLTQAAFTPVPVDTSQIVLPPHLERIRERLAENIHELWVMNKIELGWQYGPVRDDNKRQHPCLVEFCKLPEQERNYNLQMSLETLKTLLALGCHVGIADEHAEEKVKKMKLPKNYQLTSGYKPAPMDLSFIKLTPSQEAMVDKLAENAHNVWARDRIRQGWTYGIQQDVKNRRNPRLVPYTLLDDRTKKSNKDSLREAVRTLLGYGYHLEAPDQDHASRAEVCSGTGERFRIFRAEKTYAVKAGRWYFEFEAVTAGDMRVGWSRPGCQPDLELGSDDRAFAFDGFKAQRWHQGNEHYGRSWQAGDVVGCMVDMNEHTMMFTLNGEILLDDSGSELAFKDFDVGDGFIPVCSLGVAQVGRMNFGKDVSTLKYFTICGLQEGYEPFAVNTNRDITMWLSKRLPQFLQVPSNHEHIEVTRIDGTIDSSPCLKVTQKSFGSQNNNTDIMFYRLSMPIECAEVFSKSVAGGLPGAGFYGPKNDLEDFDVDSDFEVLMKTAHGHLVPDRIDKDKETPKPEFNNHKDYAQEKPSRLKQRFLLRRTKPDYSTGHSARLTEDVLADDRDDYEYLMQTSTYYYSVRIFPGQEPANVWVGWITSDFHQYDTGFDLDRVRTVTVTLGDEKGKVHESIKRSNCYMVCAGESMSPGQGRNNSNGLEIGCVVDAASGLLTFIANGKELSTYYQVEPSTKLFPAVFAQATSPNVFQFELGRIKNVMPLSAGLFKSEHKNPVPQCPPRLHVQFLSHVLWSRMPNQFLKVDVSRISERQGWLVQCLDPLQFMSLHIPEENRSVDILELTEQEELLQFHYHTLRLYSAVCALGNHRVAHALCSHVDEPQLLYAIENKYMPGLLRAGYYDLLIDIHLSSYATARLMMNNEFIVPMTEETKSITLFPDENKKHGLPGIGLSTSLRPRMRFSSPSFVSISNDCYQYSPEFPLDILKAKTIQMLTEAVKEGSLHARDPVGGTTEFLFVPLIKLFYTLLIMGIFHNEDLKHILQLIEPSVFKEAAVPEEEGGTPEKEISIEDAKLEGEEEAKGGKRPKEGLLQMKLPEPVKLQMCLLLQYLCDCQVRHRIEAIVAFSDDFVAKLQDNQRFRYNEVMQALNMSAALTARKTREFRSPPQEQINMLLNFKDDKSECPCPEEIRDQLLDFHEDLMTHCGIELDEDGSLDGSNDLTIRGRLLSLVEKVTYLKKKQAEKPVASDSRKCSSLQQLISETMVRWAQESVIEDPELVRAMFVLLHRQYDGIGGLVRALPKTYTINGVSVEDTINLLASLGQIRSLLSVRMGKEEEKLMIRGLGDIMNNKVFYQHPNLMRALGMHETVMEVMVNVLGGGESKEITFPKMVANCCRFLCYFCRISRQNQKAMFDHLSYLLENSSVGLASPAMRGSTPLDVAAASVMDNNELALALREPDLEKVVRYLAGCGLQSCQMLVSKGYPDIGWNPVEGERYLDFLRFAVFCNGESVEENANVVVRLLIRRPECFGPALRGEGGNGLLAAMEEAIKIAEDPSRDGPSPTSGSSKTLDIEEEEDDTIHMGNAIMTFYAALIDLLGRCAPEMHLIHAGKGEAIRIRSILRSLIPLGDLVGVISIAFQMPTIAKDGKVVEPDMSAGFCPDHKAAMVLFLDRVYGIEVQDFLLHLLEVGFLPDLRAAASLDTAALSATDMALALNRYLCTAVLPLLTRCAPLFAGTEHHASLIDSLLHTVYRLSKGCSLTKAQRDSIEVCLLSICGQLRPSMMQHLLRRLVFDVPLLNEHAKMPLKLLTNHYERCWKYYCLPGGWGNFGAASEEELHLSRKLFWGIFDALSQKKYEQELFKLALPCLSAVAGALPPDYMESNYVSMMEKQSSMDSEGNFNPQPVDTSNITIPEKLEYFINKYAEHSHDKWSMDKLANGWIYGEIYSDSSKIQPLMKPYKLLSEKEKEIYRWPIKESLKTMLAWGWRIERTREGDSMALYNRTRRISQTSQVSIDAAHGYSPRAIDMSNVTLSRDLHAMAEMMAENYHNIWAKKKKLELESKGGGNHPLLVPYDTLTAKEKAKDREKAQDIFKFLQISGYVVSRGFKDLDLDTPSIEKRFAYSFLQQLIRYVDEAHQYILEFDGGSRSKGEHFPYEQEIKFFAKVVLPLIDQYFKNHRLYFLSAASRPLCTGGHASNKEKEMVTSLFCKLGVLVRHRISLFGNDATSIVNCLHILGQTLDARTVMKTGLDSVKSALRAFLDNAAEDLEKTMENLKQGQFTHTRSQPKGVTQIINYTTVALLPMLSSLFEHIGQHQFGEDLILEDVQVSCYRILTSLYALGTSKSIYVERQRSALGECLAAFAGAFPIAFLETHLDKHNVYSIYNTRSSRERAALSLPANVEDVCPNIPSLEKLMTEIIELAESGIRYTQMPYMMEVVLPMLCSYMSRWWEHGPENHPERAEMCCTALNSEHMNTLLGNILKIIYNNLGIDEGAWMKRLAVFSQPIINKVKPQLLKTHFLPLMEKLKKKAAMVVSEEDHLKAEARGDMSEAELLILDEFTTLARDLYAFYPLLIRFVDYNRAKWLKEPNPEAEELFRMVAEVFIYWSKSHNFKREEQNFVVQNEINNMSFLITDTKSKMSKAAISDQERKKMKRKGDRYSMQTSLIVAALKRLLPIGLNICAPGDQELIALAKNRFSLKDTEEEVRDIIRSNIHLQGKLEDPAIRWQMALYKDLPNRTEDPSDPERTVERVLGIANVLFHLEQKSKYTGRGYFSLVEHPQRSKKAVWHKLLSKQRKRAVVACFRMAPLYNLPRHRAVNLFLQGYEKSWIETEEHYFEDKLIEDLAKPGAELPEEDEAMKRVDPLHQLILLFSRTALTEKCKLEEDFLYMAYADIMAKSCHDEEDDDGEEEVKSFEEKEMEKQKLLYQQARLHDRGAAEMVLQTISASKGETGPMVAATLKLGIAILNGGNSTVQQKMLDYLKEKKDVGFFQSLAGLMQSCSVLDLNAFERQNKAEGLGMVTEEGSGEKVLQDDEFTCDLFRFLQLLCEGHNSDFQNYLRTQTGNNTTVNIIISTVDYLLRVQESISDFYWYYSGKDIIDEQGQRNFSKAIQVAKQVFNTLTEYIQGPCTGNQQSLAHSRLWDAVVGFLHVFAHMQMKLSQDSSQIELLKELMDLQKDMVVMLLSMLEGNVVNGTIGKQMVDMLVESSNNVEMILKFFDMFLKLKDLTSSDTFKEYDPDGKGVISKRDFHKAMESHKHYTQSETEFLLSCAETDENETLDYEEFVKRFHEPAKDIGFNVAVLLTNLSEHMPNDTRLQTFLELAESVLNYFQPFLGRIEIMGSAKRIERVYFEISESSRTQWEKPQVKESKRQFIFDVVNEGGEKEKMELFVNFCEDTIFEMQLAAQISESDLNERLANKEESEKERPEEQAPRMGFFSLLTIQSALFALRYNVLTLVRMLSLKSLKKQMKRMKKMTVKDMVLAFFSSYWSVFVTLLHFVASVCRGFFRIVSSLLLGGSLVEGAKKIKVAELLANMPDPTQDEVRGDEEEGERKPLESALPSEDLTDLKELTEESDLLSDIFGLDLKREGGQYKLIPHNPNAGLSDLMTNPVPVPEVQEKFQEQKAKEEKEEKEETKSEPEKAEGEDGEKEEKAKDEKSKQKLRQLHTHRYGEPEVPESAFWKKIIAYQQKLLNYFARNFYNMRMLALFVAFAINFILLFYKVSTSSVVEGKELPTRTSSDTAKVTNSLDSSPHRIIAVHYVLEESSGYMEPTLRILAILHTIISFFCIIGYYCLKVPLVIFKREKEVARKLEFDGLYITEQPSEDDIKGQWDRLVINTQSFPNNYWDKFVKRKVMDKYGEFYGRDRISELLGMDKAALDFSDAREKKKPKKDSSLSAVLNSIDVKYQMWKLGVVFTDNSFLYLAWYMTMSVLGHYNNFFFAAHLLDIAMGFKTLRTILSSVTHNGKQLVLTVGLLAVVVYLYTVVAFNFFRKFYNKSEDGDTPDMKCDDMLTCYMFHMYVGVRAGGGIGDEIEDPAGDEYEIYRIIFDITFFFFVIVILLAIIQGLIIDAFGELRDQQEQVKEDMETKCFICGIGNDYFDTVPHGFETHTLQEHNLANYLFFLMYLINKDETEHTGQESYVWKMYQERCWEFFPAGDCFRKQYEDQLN

The first series has as its target Ryanodine receptor 2 (Mus musculus) (UniProt E9Q401). Put plainly: Inhibition of RyR2-mediated calcium spark frequency in saponin-permeabilized left ventricular myocytes of C57BL/6J mouse at 25 uM incubated for 15 min by Fluo-4 dye based analysis. The series is classed as cell-based. Particulars: Ventricular myocyte.
With `CCCCC[C@H]1C(=O)N[C@H](C)C(=O)N(C)[C@@H](CCCCC)C(=O)N(C)[C@H](C)C(=O)N(C)[C@@H](CCCCC)C(=O)N(C)[C@H](C)C(=O)N(C)[C@@H](CCCCC)C(=O)N(C)[C@H](C)C(=O)N1C` (cyclo([NMeAhp(2)][dA][NMeAhp(2)][dNMeA][NMeAhp(2)][dNMeA][NMeAhp(2)][dNMeA])), the inhibition result was “inactive”.

With `CCCCC[C@H]1C(=O)N[C@H](C)C(=O)N(C)[C@@H](CCCCC)C(=O)N[C@H](C)C(=O)N(C)[C@@H](CCCCC)C(=O)N(C)[C@H](C)C(=O)N(C)[C@@H](CCCCC)C(=O)N(C)[C@H](C)C(=O)N1C` (cyclo([NMeAhp(2)][dA][NMeAhp(2)][dA][NMeAhp(2)][dNMeA][NMeAhp(2)][dNMeA])), the inhibition result was “inactive”.

For the molecule `CCCCC[C@@H]1OC(=O)[C@@H](C)N(C)C(=O)[C@H](CCCCC)OC(=O)[C@@H](C)N(C)C(=O)[C@H](CCCCC)N(C)C(=O)[C@@H](C)N(C)C(=O)[C@H](CCCCC)OC(=O)[C@@H](C)N(C)C1=O`, the inhibition result is “Active”.

On to `CCCCC[C@H]1C(=O)N[C@H](C)C(=O)N(C)[C@@H](CCCCC)C(=O)N[C@H](C)C(=O)N(C)[C@@H](CCCCC)C(=O)N[C@H](C)C(=O)N(C)[C@@H](CCCCC)C(=O)N[C@H](C)C(=O)N1C` (cyclo([NMeAhp(2)][dA][NMeAhp(2)][dA][NMeAhp(2)][dA][NMeAhp(2)][dA])), for which the inhibition entry is “inactive”.

Turning to `CCCCC[C@@H]1NC(=O)[C@@H](C)N(C)C(=O)[C@H](CCCCC)N(C)C(=O)[C@@H](C)N(C)C(=O)[C@H](CCCCC)NC(=O)[C@@H](C)N(C)C(=O)[C@H](CCCCC)N(C)C(=O)[C@@H](C)N(C)C1=O` (cyclo([Ahp(2)][dNMeA][NMeAhp(2)][dNMeA][Ahp(2)][dNMeA][NMeAhp(2)][dNMeA])), the inhibition entry is “inactive”.

Turning to `CCCCC[C@@H]1OC(=O)[C@@H](C)N(C)C(=O)[C@H](CCCCC)N(C)C(=O)[C@@H](C)N(C)C(=O)[C@H](CCCCC)OC(=O)[C@@H](C)N(C)C(=O)[C@H](CCCCC)N(C)C(=O)[C@@H](C)N(C)C1=O`, the inhibition entry is “inactive”.

Consider `CCCCC[C@@H]1NC(=O)[C@@H](C)N(C)C(=O)[C@H](CCCCC)NC(=O)[C@@H](C)N(C)C(=O)[C@H](CCCCC)N(C)C(=O)[C@@H](C)N(C)C(=O)[C@H](CCCCC)NC(=O)[C@@H](C)N(C)C1=O` (cyclo([Ahp(2)][dNMeA][Ahp(2)][dNMeA][Ahp(2)][dNMeA][NMeAhp(2)][dNMeA])), for which the inhibition entry was “inactive”.

Regarding `CCCCC[C@@H]1NC(=O)[C@@H](C)N(C)C(=O)[C@H](CCCCC)NC(=O)[C@@H](C)N(C)C(=O)[C@H](CCCCC)NC(=O)[C@@H](C)N(C)C(=O)[C@H](CCCCC)NC(=O)[C@@H](C)N(C)C1=O` (cyclo([Ahp(2)][dNMeA][Ahp(2)][dNMeA][Ahp(2)][dNMeA][Ahp(2)][dNMeA])), the inhibition entry is “inactive”.

On to `CCCCC[C@@H]1OC(=O)[C@@H](C)N(C)C(=O)[C@H](CCCCC)OC(=O)[C@@H](C)N(C)C(=O)[C@H](CCCCC)OC(=O)[C@@H](C)N(C)C(=O)[C@H](CCCCC)OC(=O)[C@@H](C)NC1=O`, for which the inhibition result is “inactive”.

For the molecule `CCCCC[C@@H]1OC(=O)[C@@H](C)NC(=O)[C@H](CCCCC)OC(=O)[C@@H](C)NC(=O)[C@H](CCCCC)OC(=O)[C@@H](C)NC(=O)[C@H](CCCCC)OC(=O)[C@@H](C)NC1=O`, the inhibition result is “inactive”.

For `CCCCC[C@@H]1OC(=O)[C@@H](C)N(C)C(=O)[C@H](CCCCC)OC(=O)[C@@H](C)NC(=O)[C@H](CCCCC)OC(=O)[C@@H](C)NC(=O)[C@H](CCCCC)OC(=O)[C@@H](C)NC1=O`, the inhibition entry is “inactive”.

As to `CCCCC[C@@H]1OC(=O)[C@@H](C)N(C)C(=O)[C@H](CCCCC)OC(=O)[C@@H](C)N(C)C(=O)[C@H](CCCCC)OC(=O)[C@@H](C)NC(=O)[C@H](CCCCC)OC(=O)[C@@H](C)NC1=O`, the inhibition result is “inactive”.

For `CCCCC[C@@H]1OC(=O)[C@@H](C)N(C)C(=O)[C@H](CCCCC)N(C)C(=O)[C@@H](C)N(C)C(=O)[C@H](CCCCC)N(C)C(=O)[C@@H](C)N(C)C(=O)[C@H](CCCCC)N(C)C(=O)[C@@H](C)N(C)C1=O`, the inhibition entry is “inactive”.

For the molecule `CCCCC[C@H]1C(=O)N(C)[C@H](C)C(=O)N(C)[C@@H](CCCCC)C(=O)N(C)[C@H](C)C(=O)N(C)[C@@H](CCCCC)C(=O)N(C)[C@H](C)C(=O)N(C)[C@@H](CCCCC)C(=O)N(C)[C@H](C)C(=O)N1C` (cyclo([NMeAhp(2)][dNMeA][NMeAhp(2)][dNMeA][NMeAhp(2)][dNMeA][NMeAhp(2)][dNMeA])), the inhibition result was “inactive”.

Regarding `CCCCC[C@H]1C(=O)N[C@H](C)C(=O)N(C)[C@@H](CCCCC)C(=O)N[C@H](C)C(=O)N(C)[C@@H](CCCCC)C(=O)N[C@H](C)C(=O)N(C)[C@@H](CCCCC)C(=O)N(C)[C@H](C)C(=O)N1C` (cyclo([NMeAhp(2)][dA][NMeAhp(2)][dA][NMeAhp(2)][dA][NMeAhp(2)][dNMeA])), the inhibition entry is “inactive”.

`CCCCC[C@@H]1OC(=O)[C@@H](C)N(C)C(=O)[C@H](CCCCC)OC(=O)[C@@H](C)N(C)C(=O)[C@H](CCCCC)OC(=O)[C@@H](C)N(C)C(=O)[C@H](CCCCC)OC(=O)[C@@H](C)N(C)C1=O`: the inhibition entry is “inactive”.

In the case of `CCCCC[C@@H]1OC(=O)[C@@H](C)N(C)C(=O)[C@H](CCCCC)N(C)C(=O)[C@@H](C)N(C)C(=O)[C@H](CCCCC)N(C)C(=O)[C@@H](C)N(C)C(=O)[C@H](CCCCC)OC(=O)[C@@H](C)N(C)C1=O`, the inhibition result is “inactive”.

As to `CCCCC[C@H]1C(=O)N[C@H](C)C(=O)N(C)[C@@H](CCCCC)C(=O)N(C)[C@H](C)C(=O)N(C)[C@@H](CCCCC)C(=O)N[C@H](C)C(=O)N(C)[C@@H](CCCCC)C(=O)N(C)[C@H](C)C(=O)N1C` (cyclo([NMeAhp(2)][dA][NMeAhp(2)][dNMeA][NMeAhp(2)][dA][NMeAhp(2)][dNMeA])), the inhibition entry is “inactive”.

As for `CCCCC[C@@H]1NC(=O)[C@@H](C)N(C)C(=O)[C@H](CCCCC)NC(=O)[C@@H](C)N(C)C(=O)[C@H](CCCCC)OC(=O)[C@@H](C)N(C)C(=O)[C@H](CCCCC)NC(=O)[C@@H](C)N(C)C1=O` (cyclo([Ahp(2)][dNMeA][Ahp(2)][dNMeA][Ahp(2)][dNMeA][X1][dNMeA])), the inhibition entry is “inactive”.

For `CCCCC[C@@H]1NC(=O)[C@@H](C)N(C)C(=O)[C@H](CCCCC)N(C)C(=O)[C@@H](C)N(C)C(=O)[C@H](CCCCC)N(C)C(=O)[C@@H](C)N(C)C(=O)[C@H](CCCCC)N(C)C(=O)[C@@H](C)N(C)C1=O` (cyclo([Ahp(2)][dNMeA][NMeAhp(2)][dNMeA][NMeAhp(2)][dNMeA][NMeAhp(2)][dNMeA])), the inhibition result is “inactive”.

Consider `CCCCC[C@@H]1NC(=O)[C@@H](C)N(C)C(=O)[C@H](CCCCC)OC(=O)[C@@H](C)N(C)C(=O)[C@H](CCCCC)OC(=O)[C@@H](C)N(C)C(=O)[C@H](CCCCC)OC(=O)[C@@H](C)N(C)C1=O` (cyclo([Ahp(2)][dNMeA][X1][dNMeA][X1][dNMeA][X1][dNMeA])), for which the inhibition entry was “Active”.

With `CCCCC[C@@H]1NC(=O)[C@@H](C)N(C)C(=O)[C@H](CCCCC)N(C)C(=O)[C@@H](C)N(C)C(=O)[C@H](CCCCC)N(C)C(=O)[C@@H](C)N(C)C(=O)[C@H](CCCCC)NC(=O)[C@@H](C)N(C)C1=O` (cyclo([Ahp(2)][dNMeA][Ahp(2)][dNMeA][NMeAhp(2)][dNMeA][NMeAhp(2)][dNMeA])), the inhibition entry was “inactive”.

Regarding `CCCCC[C@@H]1OC(=O)[C@@H](C)N(C)C(=O)[C@H](CCCCC)OC(=O)[C@@H](C)NC(=O)[C@H](CCCCC)OC(=O)[C@@H](C)N(C)C(=O)[C@H](CCCCC)OC(=O)[C@@H](C)NC1=O`, the inhibition entry was “inactive”.

`CCCCC[C@@H]1NC(=O)[C@@H](C)N(C)C(=O)[C@H](CCCCC)OC(=O)[C@@H](C)N(C)C(=O)[C@H](CCCCC)NC(=O)[C@@H](C)N(C)C(=O)[C@H](CCCCC)OC(=O)[C@@H](C)N(C)C1=O` (cyclo([Ahp(2)][dNMeA][X1][dNMeA][Ahp(2)][dNMeA][X1][dNMeA])): the inhibition entry is “inactive”.

Take `CCCCC[C@@H]1NC(=O)[C@@H](C)N(C)C(=O)[C@H](CCCCC)OC(=O)[C@@H](C)N(C)C(=O)[C@H](CCCCC)OC(=O)[C@@H](C)N(C)C(=O)[C@H](CCCCC)NC(=O)[C@@H](C)N(C)C1=O` (cyclo([Ahp(2)][dNMeA][Ahp(2)][dNMeA][X1][dNMeA][X1][dNMeA])): the inhibition result was “inactive”.

Tested on in a further series: not listed separately
The series can be described thus: Passive permeability of compound by PAMPA. Format: ADME.
Settings: not given
Turning to `CCCCC[C@@H]1OC(=O)[C@@H](C)N(C)C(=O)[C@H](CCCCC)OC(=O)[C@@H](C)N(C)C(=O)[C@H](CCCCC)N(C)C(=O)[C@@H](C)N(C)C(=O)[C@H](CCCCC)OC(=O)[C@@H](C)N(C)C1=O`, the permeability entry is “Permeable”.

Consider `CCCCC[C@@H]1NC(=O)[C@@H](C)N(C)C(=O)[C@H](CCCCC)OC(=O)[C@@H](C)N(C)C(=O)[C@H](CCCCC)OC(=O)[C@@H](C)N(C)C(=O)[C@H](CCCCC)OC(=O)[C@@H](C)N(C)C1=O` (cyclo([Ahp(2)][dNMeA][X1][dNMeA][X1][dNMeA][X1][dNMeA])), for which the permeability entry is recorded as “Permeable”.
